According to patent US5843954A, “Camptothecin derivatives, preparations thereof and antitumor agents” (priority 1994, dated 1998):
≈ marks a conversion by molar mass, not a printed value.

Test system: not listed separately
Test: Acute toxicity test by intraperitoneal administration
Conditions: mouse, in vivo, ip, ICR male mice, 1 week observation
Procedure: Acute toxicity test was conducted by intraperitoneal administration using a group of twenty ICR male mice (4 weeks old, body weight around 20 g).
LD50 value was calculated by the Richfield-Willcokson method from a lethal ratio observing the fate of mice during 1 week after administration of a test compound.
Work on CCC(=O)OCc1c([C@@](O)(CC)C(=O)NCCN(C)C)cc2n(c1=O)Cc1c-2nc2cc(F)ccc2c1CC [Compound C8] yielded an LD50 at 168 h of 124 mg/kg. CCc1c2c(nc3ccc(Br)cc13)-c1cc([C@@](O)(CC)C(=O)NCCN(C)C)c(COC(=O)CCSC)c(=O)n1C2 [Compound C6] gave an LD50 at 168 h of 116 mg/kg. Compound CCc1c2c(nc3cc(Cl)c(Cl)cc13)-c1cc([C@@](O)(CC)C(=O)NCCN(C)C)c(COC(=O)CCSC)c(=O)n1C2 [Compound C19] has an LD50 at 168 h of 94.8 mg/kg. CCCC(=O)OCc1c([C@@](O)(CC)C(=O)NCCN(C)C)cc2n(c1=O)Cc1c-2nc2cc(Cl)c(Cl)cc2c1CC [Compound C18] gave an LD50 at 168 h of 92.3 mg/kg. For CCc1c2c(nc3ccc(O)cc13)-c1cc([C@@](O)(CC)C(=O)NCCN(C)C)c(COC(=O)CCSC)c(=O)n1C2 [Compound C32], the LD50 at 168 h was 307 mg/kg. For CCCC(=O)OCc1c([C@@](O)(CC)C(=O)NCCN(C)C)cc2n(c1=O)Cc1c-2nc2cc(F)ccc2c1CC [Compound C9], the LD50 at 168 h was 152 mg/kg. CCC(=O)OCc1c([C@@](O)(CC)C(=O)NCCN(C)C)cc2n(c1=O)Cc1c-2nc2cc(F)c(OC)cc2c1CC [Compound C20] gave an LD50 at 168 h of 84.5 mg/kg.

Test system: not listed separately
Test: Antitumor activity for L1210 (life prolonging effect, mouse leukemia transplanted intraperitoneally)
Type: in vivo
Conditions: mouse, in vivo, ip; numerator of therapeutic index; i.p. total dose; read-out: Maximum tolerable dose
Procedure: (§1) 5×10^5 cells of mouse leukemia L1210 were transplanted intraperitoneally to a group of six female CDF1 mice (7 weeks old, body weight 17-19 g). The test compound was administered intraperitoneally on day 1, 5 and 9 and its life prolonging effect was observed.
(§2) In a case of the administration of a test compound as an acid addition salt the test compound was dissolved in water. The total administration amount was 1.56 mg/kg-400 mg/kg. The antitumor activity was expressed by the value (T/C%) wherein T denotes the mean survival days in the drug administered group and C denotes those in the non administered group. In case of equal to or more than 125% the drug is considered to be effective.
CCC(=O)OCc1c([C@@](O)(CC)C(=O)NCCN(C)C)cc2n(c1=O)Cc1c-2nc2cc(F)ccc2c1CC [Compound C8] gave an MTD of 12.5 mg/kg. CCc1c2c(nc3ccc(Br)cc13)-c1cc([C@@](O)(CC)C(=O)NCCN(C)C)c(COC(=O)CCSC)c(=O)n1C2 [Compound C6] showed an MTD of 6.25 mg/kg. CCc1c2c(nc3cc(Cl)c(Cl)cc13)-c1cc([C@@](O)(CC)C(=O)NCCN(C)C)c(COC(=O)CCSC)c(=O)n1C2 [Compound C19] showed an MTD of 3.13 mg/kg. In the case of CCCC(=O)OCc1c([C@@](O)(CC)C(=O)NCCN(C)C)cc2n(c1=O)Cc1c-2nc2cc(Cl)c(Cl)cc2c1CC [Compound C18], the MTD is reported as 3.13 mg/kg. For CCc1c2c(nc3ccc(O)cc13)-c1cc([C@@](O)(CC)C(=O)NCCN(C)C)c(COC(=O)CCSC)c(=O)n1C2 [Compound C32], the MTD was 200 mg/kg. For CCCC(=O)OCc1c([C@@](O)(CC)C(=O)NCCN(C)C)cc2n(c1=O)Cc1c-2nc2cc(F)ccc2c1CC [Compound C9], the MTD was 12.5 mg/kg. CCC(=O)OCc1c([C@@](O)(CC)C(=O)NCCN(C)C)cc2n(c1=O)Cc1c-2nc2cc(F)c(OC)cc2c1CC [Compound C20] gave an MTD of 3.13 mg/kg.

Test system: mouse leukemia L1210
Test: as above
Type: in vivo
Conditions: Mus musculus, L1210, ip; denominator of therapeutic index; i.p. total dose; read-out: Minimum effective dose
Procedure: as §1, §2
CCC(=O)OCc1c([C@@](O)(CC)C(=O)NCCN(C)C)cc2n(c1=O)Cc1c-2nc2cc(F)ccc2c1CC [Compound C8] gave a minimal effective dose of 1.56 mg/kg. With CCc1c2c(nc3ccc(Br)cc13)-c1cc([C@@](O)(CC)C(=O)NCCN(C)C)c(COC(=O)CCSC)c(=O)n1C2 [Compound C6] the minimal effective dose was less than 1.56 mg/kg. With CCc1c2c(nc3cc(Cl)c(Cl)cc13)-c1cc([C@@](O)(CC)C(=O)NCCN(C)C)c(COC(=O)CCSC)c(=O)n1C2 [Compound C19] the minimal effective dose was less than 1.56 mg/kg. CCCC(=O)OCc1c([C@@](O)(CC)C(=O)NCCN(C)C)cc2n(c1=O)Cc1c-2nc2cc(Cl)c(Cl)cc2c1CC [Compound C18] showed a minimal effective dose of less than 1.56 mg/kg. CCc1c2c(nc3ccc(O)cc13)-c1cc([C@@](O)(CC)C(=O)NCCN(C)C)c(COC(=O)CCSC)c(=O)n1C2 [Compound C32] showed a minimal effective dose of 6.25 mg/kg. In the case of CCCC(=O)OCc1c([C@@](O)(CC)C(=O)NCCN(C)C)cc2n(c1=O)Cc1c-2nc2cc(F)ccc2c1CC [Compound C9], the minimal effective dose is reported as 1.56 mg/kg. Work on CCC(=O)OCc1c([C@@](O)(CC)C(=O)NCCN(C)C)cc2n(c1=O)Cc1c-2nc2cc(F)c(OC)cc2c1CC [Compound C20] yielded a minimal effective dose of less than 1.56 mg/kg.

Same assay, conditions: at optimum dose; group of six female CDF1 mice
With CCC(=O)OCc1c([C@@](O)(CC)C(=O)NCCN(C)C)cc2n(c1=O)Cc1c-2nc2cc(F)ccc2c1CC [Compound C8] the 40-day survivors was 4/6. In the case of CCc1c2c(nc3ccc(Br)cc13)-c1cc([C@@](O)(CC)C(=O)NCCN(C)C)c(COC(=O)CCSC)c(=O)n1C2 [Compound C6], the 40-day survivors is reported as 1/6. With CCc1c2c(nc3cc(Cl)c(Cl)cc13)-c1cc([C@@](O)(CC)C(=O)NCCN(C)C)c(COC(=O)CCSC)c(=O)n1C2 [Compound C19] the 40-day survivors was 0/6. With CCCC(=O)OCc1c([C@@](O)(CC)C(=O)NCCN(C)C)cc2n(c1=O)Cc1c-2nc2cc(Cl)c(Cl)cc2c1CC [Compound C18] the 40-day survivors was 0/6. With CCc1c2c(nc3ccc(O)cc13)-c1cc([C@@](O)(CC)C(=O)NCCN(C)C)c(COC(=O)CCSC)c(=O)n1C2 [Compound C32] the 40-day survivors was 0/6. In the case of CCCC(=O)OCc1c([C@@](O)(CC)C(=O)NCCN(C)C)cc2n(c1=O)Cc1c-2nc2cc(F)ccc2c1CC [Compound C9], the 40-day survivors is reported as 2/6. In the case of CCC(=O)OCc1c([C@@](O)(CC)C(=O)NCCN(C)C)cc2n(c1=O)Cc1c-2nc2cc(F)c(OC)cc2c1CC [Compound C20], the 40-day survivors is reported as 0/6.

Same assay, conditions: i.p., L1210, CDF1 mice
In the case of CCC(=O)OCc1c([C@@](O)(CC)C(=O)NCCN(C)C)cc2n(c1=O)Cc1c-2nc2cc(F)ccc2c1CC [Compound C8], the “Therapeutic Index (Maximum tolerable dose/Minimum effective dose)” value is reported as 8. For CCc1c2c(nc3ccc(Br)cc13)-c1cc([C@@](O)(CC)C(=O)NCCN(C)C)c(COC(=O)CCSC)c(=O)n1C2 [Compound C6], the “Therapeutic Index (Maximum tolerable dose/Minimum effective dose)” value was greater than 4. For CCc1c2c(nc3cc(Cl)c(Cl)cc13)-c1cc([C@@](O)(CC)C(=O)NCCN(C)C)c(COC(=O)CCSC)c(=O)n1C2 [Compound C19], the “Therapeutic Index (Maximum tolerable dose/Minimum effective dose)” value was greater than 2. In the case of CCCC(=O)OCc1c([C@@](O)(CC)C(=O)NCCN(C)C)cc2n(c1=O)Cc1c-2nc2cc(Cl)c(Cl)cc2c1CC [Compound C18], the “Therapeutic Index (Maximum tolerable dose/Minimum effective dose)” value is reported as greater than 2. For CCc1c2c(nc3ccc(O)cc13)-c1cc([C@@](O)(CC)C(=O)NCCN(C)C)c(COC(=O)CCSC)c(=O)n1C2 [Compound C32], the “Therapeutic Index (Maximum tolerable dose/Minimum effective dose)” value was 32. For CCCC(=O)OCc1c([C@@](O)(CC)C(=O)NCCN(C)C)cc2n(c1=O)Cc1c-2nc2cc(F)ccc2c1CC [Compound C9], the “Therapeutic Index (Maximum tolerable dose/Minimum effective dose)” value was 8. With CCC(=O)OCc1c([C@@](O)(CC)C(=O)NCCN(C)C)cc2n(c1=O)Cc1c-2nc2cc(F)c(OC)cc2c1CC [Compound C20] the “Therapeutic Index (Maximum tolerable dose/Minimum effective dose)” value was greater than 2.

Test system: not listed separately
Test: Water solubility
Type: physicochemical
Conditions: not given
CCC(=O)OCc1c([C@@](O)(CC)C(=O)NCCN(C)C)cc2n(c1=O)Cc1c-2nc2cc(F)ccc2c1CC [Compound C8] gave a solubility of 20 mg/mL (≈ 37.1 mM). CCc1c2c(nc3ccc(Br)cc13)-c1cc([C@@](O)(CC)C(=O)NCCN(C)C)c(COC(=O)CCSC)c(=O)n1C2 [Compound C6] showed a solubility of 25 mg/mL (≈ 38.7 mM). CCc1c2c(nc3cc(Cl)c(Cl)cc13)-c1cc([C@@](O)(CC)C(=O)NCCN(C)C)c(COC(=O)CCSC)c(=O)n1C2 [Compound C19] showed a solubility of 24 mg/mL (≈ 37.8 mM). With CCCC(=O)OCc1c([C@@](O)(CC)C(=O)NCCN(C)C)cc2n(c1=O)Cc1c-2nc2cc(Cl)c(Cl)cc2c1CC [Compound C18] the solubility was 35 mg/mL (≈ 58 mM). In the case of CCc1c2c(nc3ccc(O)cc13)-c1cc([C@@](O)(CC)C(=O)NCCN(C)C)c(COC(=O)CCSC)c(=O)n1C2 [Compound C32], the solubility is reported as greater than 62 mg/mL. CCCC(=O)OCc1c([C@@](O)(CC)C(=O)NCCN(C)C)cc2n(c1=O)Cc1c-2nc2cc(F)ccc2c1CC [Compound C9] gave a solubility greater than 59 mg/mL. CCC(=O)OCc1c([C@@](O)(CC)C(=O)NCCN(C)C)cc2n(c1=O)Cc1c-2nc2cc(F)c(OC)cc2c1CC [Compound C20] showed a solubility greater than 60 mg/mL.
